Measured values reported in US12729393B2, “Agent interaction effects determination” (priority 2020, dated 2026).

Test system: Escherichia coli reference strain K12-MG1655
Assay: CombiANT self-interaction experiments (3 reservoirs filled with the same antibiotic)
Type: cell-based
Conditions: 3 biological replicates; Wilcoxon signed rank test
Text: FIG. 17 illustrates self-interaction experiments of the Escherichia coli reference strain K12-MG1655. FICi for all self-interactions for the 8 antibiotics AMP, CIP, CTX, GEN, FOF, NIT, MEC, TMP. Bars indicate average FICi values and standard deviation (SD) of 3 biological replicates.
First, as controls, we performed self-interaction experiments, where the 3 culture container insert reservoirs were filled with the same antibiotic. […] Next, to verify that the CombiANT™ assay produced valid synergy quantifications, we ran an accuracy and precision study. We tested all pairwise antibiotic interactions in the two Gram-negative reference strains E. coli […] and P. aeruginosa PA14, and the Gram-positive S. aureus reference strain ATCC29213 against a panel of 4 antibiotics. The tested antibiotics, ampicillin (AMP), cefotaxime (CTX), ciprofloxacin (CIP), and gentamicin (GEN), spanned three distinct mechanisms of action and are commonly used in treatments of bacteremia and sepsis caused by these bacterial species. FICi indices were calculated for all 6 pair-wise interactions and all three strains (FIG. 18A).

| Compound | nature of self-interaction (FICi) |
| --- | --- |
| O=C(O)c1cn(C2CC2)c2cc(N3CCNCC3)c(F)cc2c1=O [CIP, ciprofloxacin] | additive |
| CC1(C)S[C@@H]2[C@H](/N=C/N3CCCCCC3)C(=O)N2[C@H]1C(=O)O [MEC, mecillinam] | additive |
| CO/N=C(\C(=O)N[C@@H]1C(=O)N2C(C(=O)O)=C(COC(C)=O)CS[C@H]12)c1csc(N)n1 [CTX, cefotaxime] | additive |
| gentamicin | additive |
| COc1cc(Cc2cnc(N)nc2N)cc(OC)c1OC [TMP, trimethoprim] | additive |
| C[C@@H]1O[C@@H]1P(=O)(O)O [FOF, fosfomycin] | additive |
| CC1(C)S[C@@H]2[C@H](NC(=O)[C@H](N)c3ccccc3)C(=O)N2[C@H]1C(=O)O [AMP, ampicillin] | additive |
